Consider one molecule from US20150352022A1, “Cosmetic Compositions and Methods For Inhibiting Melanin Synthesis” (The Procter & Gamble Company, priority 2013, published 2015).

This experiment concerns B16-F1 mouse melanoma cells. In words: Melanin Synthesis Assay. It is filed as cell-based. The protocol: A B16-F1 mouse melanoma cell line may be employed as an assay to measure melanin synthesis. The B16-F1 cells may be obtained from American Tissue Culture Collection, Virginia, USA. The cell culture medium that may be used in the assay may comprise 500 mL of Dulbecco's Modified Eagle's Medium (DMEM), 50 mL Fetal Bovine Serum (FBS), and 5 mL of penicillin-streptomycin liquid. B16-F1 cells that are cultured in this medium and grown to greater than 90% confluency synthesize melanin. While not intending to be bound by any theory, it is hypothesized that melanin synthesis is stimulated by the culture medium and/or stress induced by growth to a high confluency. […] Equipment used in the assay include a CO2 incubator, such as a Forma Series Model 3110 by Therma Scientific, Massachusetts, USA; a hemocytometer, such as a Bright Line model by Hauser Scientific, Pennsylvania, USA; and a UV-Visible Spectrum Plate Reader, such as a SpectraMax250 from Molecular Devices, California, USA. […] Read the 96 well plate using the UV-Vis Plate Reader at 410 nm to optically measure the amount of melanin produced between wells that are treated with [test compound] and control wells that are not treated with a test compound. […] Percentage of melanin synthesis inhibition is calculated by the following equation: [formula] Where OD410 is the Optical Density at 410 nm as measured by the UV-Vis Spectrum Plate Reader. […]

Consider `CC(C)=CCC[C@](C)(O)[C@@H]1CC=C(C)CC1` [Sample 1, bisabolol], for which the “Average Melanin % Inhibition” value (OD 410 nm, Bis 0.1%, HD 0.00056%, UP 0.00011%, Nia 0.00056% where present) was 2.2%. The “reduction of the production of melanin as compared to Sample 4 (HD/UP/Nia)” value (statistical comparison versus Sample 4) is “did not significantly reduce”.
